Results taken from patent US4871719A, “Composition for controlling parasites in productive livestock” (Ciba-Geigy Corporation, priority 1987, dated 1989).

Test system: L1 larvae of Lucilia sericata
Assay: Action against L1 larvae of Lucilia sericata
Assay type: in vivo
Conditions: 96 h, read-out: action (mortality count)
Experimental: 1 ml of an aqueous suspension of test compound is mixed with 3 ml of a special larval culture medium at about 50° C. such that a homogeneous composition containing 250 ppm or 125 ppm of active ingredient is obtained. About 30 Lucilia sericata larvae (L1) are put into each test tube sample. A mortality count is made after 4 days. The compounds of formula I, such as, for example, Nos. 3.2, 3.6, 3.7, 3.10, 3.34 and 3.38, achieved 100% action at 125 ppm.

SMILES	mortality at 125 ppm [%]
CCOCCOC1CC[C@@]2(O1)/C(C)=C/C[C@@H]1C[C@@H](C[C@]3(CC[C@H](C)[C@@H](C(C)C)O3)O1)OC(=O)[C@@H]1C=C(C)[C@@H](O)[C@H]3OC/C(=C\C=C\[C@@H]2C)[C@]31O (stereo partly drawn) [Compound 3.38]	100
COC1CC[C@@]2(O1)/C(C)=C/C[C@@H]1C[C@@H](C[C@]3(CC[C@H](C)[C@@H](C(C)C)O3)O1)OC(=O)[C@@H]1C=C(C)[C@@H](O)[C@H]3OC/C(=C\C=C\[C@@H]2C)[C@]31O (single isomer, unassigned) [Compound 3.2]	100
CCOC1CC[C@@]2(O1)/C(C)=C/C[C@@H]1C[C@@H](C[C@]3(CC[C@H](C)[C@@H](C(C)C)O3)O1)OC(=O)[C@@H]1C=C(C)[C@@H](O)[C@H]3OC/C(=C\C=C\[C@@H]2C)[C@]31O (stereo partly drawn) [Compound 3.6]	100
CC1=C[C@H]2C(=O)O[C@H]3C[C@@H](C/C=C(\C)[C@]4(CCC(OC(C)C)O4)[C@@H](C)/C=C/C=C4\CO[C@H]([C@@H]1O)[C@@]42O)O[C@@]1(CC[C@H](C)[C@@H](C(C)C)O1)C3 (single isomer, unassigned) [Compound 3.10]	100
COCCOC1CC[C@@]2(O1)/C(C)=C/C[C@@H]1C[C@@H](C[C@]3(CC[C@H](C)[C@@H](C(C)C)O3)O1)OC(=O)[C@@H]1C=C(C)[C@@H](O)[C@H]3OC/C(=C\C=C\[C@@H]2C)[C@]31O (single isomer, unassigned) [Compound 3.34]	100
CCCOC1CC[C@@]2(O1)/C(C)=C/C[C@@H]1C[C@@H](C[C@]3(CC[C@H](C)[C@@H](C(C)C)O3)O1)OC(=O)[C@@H]1C=C(C)[C@@H](O)[C@H]3OC/C(=C\C=C\[C@@H]2C)[C@]31O (single isomer, unassigned) [Compound 3.7]	100
